According to ChEMBL document CHEMBL1201862, “PubChem BioAssay data set” (2004):
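Following 48 hours of exposure in 96-well plates, responses at five concentrations were used to interpolate endpoints linearly. Abbreviation: GI50, concentration required for 50% inhibition of growth.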 The source made the active and inactive calls. Cut-off read from the data, not from the text of the source: active = GI50 up to about 1.1 µM and inactive = higher.

Legend:
Assay in all cases: inhibition of tumour cell growth, NCI panel, 48 h
M14 = system: M14
BT-549 = system: BT-549
MDA-MB-231 = system: MDA-MB-231
TK-10 = system: TK-10
HCT-116 = system: HCT-116
HL-60 = system: HL-60
MDA-N = system: MDA-N
LOX IMVI = system: LOX IMVI
MDA-MB-435 = system: MDA-MB-435
SW-620 = system: SW-620
MOLT-4 = system: MOLT-4
A498 = system: A498
OVCAR-8 = system: OVCAR-8
Hs-578T = system: Hs-578T
NCI-H23 = system: NCI-H23
SK-MEL-28 = system: SK-MEL-28
CCRF-CEM = system: CCRF-CEM
HT-29 = system: HT-29

Compound	GI50 (M14)	GI50 (BT-549)	GI50 (MDA-MB-231)	GI50 (TK-10)	GI50 (HCT-116)	GI50 (HL-60)	GI50 (MDA-N)	GI50 (LOX IMVI)	GI50 (MDA-MB-435)	GI50 (SW-620)	GI50 (MOLT-4)	GI50 (A498)	GI50 (OVCAR-8)	GI50 (Hs-578T)	GI50 (NCI-H23)	GI50 (SK-MEL-28)	GI50 (CCRF-CEM)	GI50 (HT-29)
CCC1(N)C(=O)OCc2c1cc1n(c2=O)Cc2cc3ccccc3nc2-1 (stereo not given)	7.41 µM (inactive)	30.5 µM (inactive)	77.4 µM (inactive)	> 74.3 µM (inactive)	4.67 µM (inactive)	1.74 µM (inactive)	17.7 µM (inactive)	4.78 µM (inactive)	54.6 µM (inactive)	25.7 µM (inactive)	0.871 µM (active)	4.74 µM (inactive)	7.71 µM (inactive)	> 100 µM (inactive)	4.56 µM (inactive)	> 93.1 µM (inactive)	0.859 µM (active)	15 µM (inactive)
Cn1c(=O)c2c(nc3sc4c(n32)C(=O)c2c(O)ccc(O)c2C4=O)n(C)c1=O	2.51 µM (inactive)	5.9 µM (inactive)	2.28 µM (inactive)	5.97 µM (inactive)	1.87 µM (inactive)	0.51 µM (active)	1.86 µM (inactive)	0.871 µM (active)	4.78 µM (inactive)	0.406 µM (active)	1.31 µM (inactive)	22.1 µM (inactive)	2.34 µM (inactive)	16.3 µM (inactive)	7.55 µM (inactive)	6.05 µM (inactive)	0.305 µM (active)	2.19 µM (inactive)
N/C(=N\Nc1nc2cc([N+](=O)[O-])ccc2o1)c1ccccn1	0.144 µM (active)	0.335 µM (active)	0.114 µM (active)	0.193 µM (active)	0.0369 µM (active)	0.0594 µM (active)	0.189 µM (active)	0.071 µM (active)	0.551 µM (active)	0.113 µM (active)	0.0621 µM (active)	0.248 µM (active)	0.0474 µM (active)	4.31 µM (inactive)	0.229 µM (active)	0.222 µM (active)	< 0.0223 µM (active)	0.0493 µM (active)
O=C1C(Cl)=C(N2C(=O)CCCC2=O)C(=O)c2ccccc21	19.5 µM (inactive)	20.3 µM (inactive)	20 µM (inactive)	17.5 µM (inactive)	16.8 µM (inactive)	1.7 µM (inactive)	17.2 µM (inactive)	20.6 µM (inactive)	21.8 µM (inactive)	20.9 µM (inactive)	17.9 µM (inactive)	16.8 µM (inactive)	11.7 µM (inactive)	31.2 µM (inactive)	17.2 µM (inactive)	13.9 µM (inactive)	4.13 µM (inactive)	15.7 µM (inactive)
CN(C)CCCN1c2ccc([N+](=O)[O-])cc2CCc2cc([N+](=O)[O-])ccc21	14.5 µM (inactive)	15.4 µM (inactive)	10.3 µM (inactive)	12 µM (inactive)	13.7 µM (inactive)	14.1 µM (inactive)	13.6 µM (inactive)	13.2 µM (inactive)	14.5 µM (inactive)	16 µM (inactive)	10.1 µM (inactive)	10.3 µM (inactive)	15.8 µM (inactive)	17.4 µM (inactive)	18.6 µM (inactive)	15 µM (inactive)	11.4 µM (inactive)	12.4 µM (inactive)
CC1(c2cccc(Cl)c2)CC(c2cccc(Cl)c2)=C(C#N)C(=C(C#N)C#N)N1 (stereo not given)	17.1 µM (inactive)	22.8 µM (inactive)	22.3 µM (inactive)	17.7 µM (inactive)	16.6 µM (inactive)	18.4 µM (inactive)	20.1 µM (inactive)	19.8 µM (inactive)	17 µM (inactive)	12.1 µM (inactive)	12.5 µM (inactive)	20.3 µM (inactive)	17.9 µM (inactive)	9.75 µM (inactive)	17.4 µM (inactive)	20.7 µM (inactive)	2.92 µM (inactive)	27.4 µM (inactive)
CC(C)(Cl)C(Br)CC/C(CBr)=C(/Cl)CCl.CC(C)(Cl)C(Br)CC/C(CBr)=C(\Cl)CCl (stereo not given)	1.49 µM (inactive)	2.01 µM (inactive)	1.83 µM (inactive)	4.18 µM (inactive)	1.82 µM (inactive)	0.94 µM (active)	1.8 µM (inactive)	1.61 µM (inactive)	1.79 µM (inactive)	2.64 µM (inactive)	0.417 µM (active)	0.1 µM (active)	1.75 µM (inactive)	3.22 µM (inactive)	2.43 µM (inactive)	2.11 µM (inactive)	0.126 µM (active)	2.06 µM (inactive)
COn1cc(CO)c2ccccc21	> 86.9 µM (inactive)	> 100 µM (inactive)	> 100 µM (inactive)	5.96 µM (inactive)	45.3 µM (inactive)	31.3 µM (inactive)	97.5 µM (inactive)	> 100 µM (inactive)	> 100 µM (inactive)	27.5 µM (inactive)	28.8 µM (inactive)	1.82 µM (inactive)	> 100 µM (inactive)	> 68.7 µM (inactive)	> 100 µM (inactive)	> 100 µM (inactive)	34.7 µM (inactive)	> 58.5 µM (inactive)
O=CNNC(=O)CSc1nc2ccc(I)cc2c(=O)n1Cc1ccccc1	31.6 µM (inactive)	41.7 µM (inactive)	29.3 µM (inactive)	38.6 µM (inactive)	20.4 µM (inactive)	47.5 µM (inactive)	32.3 µM (inactive)	25.4 µM (inactive)	40.5 µM (inactive)	44.8 µM (inactive)	0.361 µM (active)	37.9 µM (inactive)	46.5 µM (inactive)	34 µM (inactive)	36.7 µM (inactive)	79.8 µM (inactive)	23.7 µM (inactive)	34.9 µM (inactive)
C[N+](C)(CCNC(=O)c1cccc2cc3ccccc3nc12)Cc1ccc([N+](=O)[O-])s1	> 25 µM (inactive)	> 25 µM (inactive)	> 25 µM (inactive)	> 25 µM (inactive)	> 25 µM (inactive)	10.9 µM (inactive)	> 25 µM (inactive)	> 25 µM (inactive)	> 25 µM (inactive)	> 25 µM (inactive)	> 25 µM (inactive)	> 25 µM (inactive)	> 25 µM (inactive)	> 25 µM (inactive)	> 25 µM (inactive)	> 25 µM (inactive)	> 25 µM (inactive)	> 25 µM (inactive)
O=C1c2ccccc2C(=O)N1CCSCC(CO)SCCN1C(=O)c2ccccc2C1=O (stereo not given)	96.8 µM (inactive)	> 100 µM (inactive)	> 100 µM (inactive)	> 100 µM (inactive)	> 100 µM (inactive)	9.98 µM (inactive)	> 100 µM (inactive)	> 100 µM (inactive)	> 100 µM (inactive)	> 100 µM (inactive)	74 µM (inactive)	> 100 µM (inactive)	> 100 µM (inactive)	> 100 µM (inactive)	> 100 µM (inactive)	> 100 µM (inactive)	59.8 µM (inactive)	> 100 µM (inactive)
CC(C)(C)NC(=O)CCC1C(C(=O)NC(C)(C)C)C2(Cl)C(Cl)=C(Cl)C1(Cl)C2(Cl)Cl (stereo not given)	> 100 µM (inactive)	> 100 µM (inactive)	> 100 µM (inactive)	> 100 µM (inactive)	> 100 µM (inactive)	> 100 µM (inactive)	> 100 µM (inactive)	> 100 µM (inactive)	> 100 µM (inactive)	> 100 µM (inactive)	> 100 µM (inactive)	> 100 µM (inactive)	> 100 µM (inactive)	> 100 µM (inactive)	> 100 µM (inactive)	> 100 µM (inactive)	> 100 µM (inactive)	> 100 µM (inactive)
COC(=O)c1c2c(cc3c1CCC3)CCC2	> 100 µM (inactive)	95.9 µM (inactive)	37.7 µM (inactive)	57.4 µM (inactive)	39.6 µM (inactive)	15.5 µM (inactive)	55.3 µM (inactive)	39.4 µM (inactive)	70.8 µM (inactive)	> 100 µM (inactive)	21.6 µM (inactive)	28.6 µM (inactive)	> 100 µM (inactive)	35.8 µM (inactive)	80.7 µM (inactive)	53.6 µM (inactive)	20.1 µM (inactive)	26.3 µM (inactive)
O=C(/C=C1\C[C@H]2C=Nc3ccccc3C(=O)N2C1)NCCCCCNC(=O)/C=C1\C[C@H]2C=Nc3ccccc3C(=O)N2C1	3.49 µM (inactive)	12.6 µM (inactive)	16.2 µM (inactive)	4.32 µM (inactive)	6.14 µM (inactive)	2.4 µM (inactive)	7 µM (inactive)	1.98 µM (inactive)	4.7 µM (inactive)	2.1 µM (inactive)	1.7 µM (inactive)	19.1 µM (inactive)	2.99 µM (inactive)	22.6 µM (inactive)	9.91 µM (inactive)	12.1 µM (inactive)	1.05 µM (active)	11.6 µM (inactive)
O=c1[nH]c(Nc2ccc(Br)c(C(F)(F)F)c2)nc2[nH]cnc12	30.5 µM (inactive)	62.7 µM (inactive)	63.8 µM (inactive)	83.9 µM (inactive)	48.4 µM (inactive)	26 µM (inactive)	34.4 µM (inactive)	39.1 µM (inactive)	30.7 µM (inactive)	57.9 µM (inactive)	32 µM (inactive)	33.4 µM (inactive)	42.9 µM (inactive)	13.1 µM (inactive)	38.5 µM (inactive)	36.6 µM (inactive)	43.8 µM (inactive)	27.6 µM (inactive)
